This is an account of results in patent US8895585B2, “Nicotinamide derivative or salt thereof” (FUJIFILM Corporation, priority 2010, dated 2014).

pIC50: −log10 of the molar value.

In one experiment the test system is female Lewis rats. In words: Rat type-II-collagen-induced arthritis. The following applies: oral administration at 10 mg/kg/day, once daily Day 7 to Day 20, hindlimb volume by plethysmometer, read-out: inhibition of hindlimb swelling compared with the control group. Format: in vivo. On the procedure:
The compounds were tested to examine effects upon rat type II collagen arthritis. To 3 mg/mL bovine type II collagen solution (Collagen Gijutsu Kenshu-Kai) dissolved in 0.05 mol/L acetic acid, an equal amount of Freund's incomplete adjuvant (Wako Pure Chemical Industries, Ltd.) was added to prepare an emulsion. A portion of the emulsion (0.5 ml) was intradermally injected into the tail bases of 7- or 8-week-old female Lewis rats (Charles River Laboratories Japan, Inc.) (Day 0). Each rat was subjected to the same treatment on Day 7 after the initial inoculation so as to induce arthritis. Each test compound was orally administered from Day 7 to Day 20 once daily. At a given time during the period from Day 7 to Day 21, the rat hindlimb volume was determined using a plethysmometer (UGO BASILE), and the result was designated as an arthritis index. The following compound group inhibited hindlimb swelling by 85% or greater compared with the control group in the case of oral administration at 10 mg/kg/day: the compounds of Example 4-17, Example 6-49, Example 6-117, Example 6-157, Example 6-249, Example 6-322, Example 6-375, and Example 6-395.

The subject of experiment [1] is THP-1 cells. The experiment in a line: Antibody-dependent phagocytosis assay. Format: cell-based. As to conditions: Homo sapiens; THP-1 cells induced to differentiate with IFNγ; opsonized Escherichia coli; Table 23; read-out: IC50 upon phagocytosis inhibition. On the procedure:
THP-1 cells (2×10^5 cells/ml) which are human monocyte-like cell line were cultured in the presence of 10 ng/ml IFNγ for 2 days, so that the cells were induced to differentiate into macrophage-like cells. THP-1 cells that had been induced to differentiate were collected. The cells (5×10^4 cells/well) were reacted with test compounds having given concentrations at room temperature for 30 minutes. Thereafter, Escherichia coli (Life Technologies) labeled with a pH-sensitive dye (pHrodo) was subjected to opsonization using an anti-Escherichia coli antibody (Molecular Probes). Then, the resultant was added to THP-1 cells mixed with test compounds that had been induced to differentiate, followed by incubation at 37° C. for 3 hours. At the time of addition of opsonized Escherichia coli, cell-permeable fluorescent dye (Calcein AM) were simultaneously added thereto, and phagocytosis of opsonized Escherichia coli in viable cells was quantitatively determined using an IN Cell Analyzer.
In addition, the following are used in Table 23 to denote standards for evaluating IC50 upon phagocytosis inhibition. • A: Up to 1 μM • B: 1 to 3 μM • C: 3 to 6 μM

Experiment [2] deals with T1, glutathione S-transferase (GST)-fused full-length human Syk protein (Homo sapiens, UniProt P43405).
T1 construct: (GST)-fused full-length human Syk protein; GST (glutathione S-transferase); purchased Carna Biosciences
In words: Syk enzyme assay. Format: biochemical. As to conditions: Syk enzyme assay, Test Example 1; read-out: IC50 of Syk-inhibitory activity. The procedure, abridged:
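GST-tagged full-length human Syk (baculovirus) preincubated with compound 15 min at room temperature (pH 7.0, 10 mM MgCl2), then reacted 40 min with 0.4 μM biotinylated peptide substrate and 27 μM ATP (final). Phosphorylation read by HTRF (615/665 nm) after EDTA stop; IC50 reported.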

Experiment [3] has as its system THP-1 cells. The experiment in a line: TNFα generation assay. Format: cell-based, human. The following applies: Homo sapiens, THP-1, THP-1 cells; Table 22; read-out: IC50 in TNFα generation assay. The method in brief: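 Secreted TNFα in supernatant quantified by ELISA or AlphaLISA after 7 h culture on human IgG-coated wells (10 μg/ml coating). Cells were IFN-γ-differentiated THP-1 (10 ng/ml, 2 days), exposed to compound for 30 min at room temperature before plating.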

As for `CC(C)C[C@H](CN)Nc1nc(Nc2ccc3ncccc3c2)c(C(N)=O)cc1F` [Example 6-117, (R)-6-((1-amino-4-methylpentan-2-yl)amino)-5-fluoro-2-((quinolin-6-yl)amino)nicotinamide], the inhibition in vivo at 10 mg/kg/day in the experiment with female Lewis rats was not below 85%.
On to `CCC[C@@H](Nc1nc(Nc2ccnc(OC)c2)c(C(N)=O)cc1F)[C@H](C)N` [Example 6-249, 6-(((2S,3R)-2-aminohexane-3-yl)amino)-5-fluoro-2-((2-methoxypyridin-4-yl)amino)nicotinamide], for which, in the experiment with female Lewis rats, the inhibition in vivo at 10 mg/kg/day was not below 85%.
Regarding `CC[C@@H](Nc1nc(Nc2cncc(-c3cccc(OC)c3F)c2)c(C(N)=O)cc1F)[C@H](C)N` [Example 006-278, 6-(((2S,3R)-2-aminopentan-3-yl)amino)-5-fluoro-2-((5-(2-fluoro-3-methoxyphenyl)pyridin-3-yl)amino)nicotinamide], the pIC50 is 5.52 to 6.00 with THP-1 cells [1], more than 8.00 in experiment [2] and more than 7.19 in the experiment with THP-1 cells [3].
On the same counts, the results for `CCC[C@@H](Nc1nc(Nc2cncc(F)c2)c(C(N)=O)cc1F)[C@H](C)N` [Example 006-301, 6-(((2S,3R)-2-aminohexan-3-yl)amino)-5-fluoro-2-((5-fluoropyridin-3-yl)amino)nicotinamide] are 5.52 to 6.00, 7.30 to 8.00 and 6.89 to 7.19.
On the same counts, the results for `CCCOc1cc(Nc2nc(N[C@H](CCC)[C@H](C)N)c(F)cc2C(N)=O)ccn1` [Example 006-311, 6-(((2S,3R)-2-aminohexan-3-yl)amino)-5-fluoro-2-((2-propoxypyridin-4-yl)amino)nicotinamide] are 5.52 to 6.00, more than 8.00 and 6.89 to 7.19.
In the same order, the values of `CCn1ncc2cc(Nc3nc(N[C@@H](CN)CC(C)C)c(F)cc3C(N)=O)ccc21` [Example 006-322, (R)-6-((1-amino-4-methylpentan-2-yl)amino)-2-((1-ethyl-1H-indazol-5-yl)amino)-5-fluoronicotinamide] are more than 6.00, more than 8.00 and more than 7.19.
As for `CCn1ncc2cc(Nc3nc(N[C@@H](CN)CC(C)C)c(F)cc3C(N)=O)ccc21` [Example 6-322, (R)-6-((1-amino-4-methylpentan-2-yl)amino)-2-((1-ethyl-1H-indazol-5-yl)amino)-5-fluoronicotinamide], the inhibition in vivo at 10 mg/kg/day in the experiment on female Lewis rats was not below 85%.
`CCn1ncc2cc(Nc3nc(N[C@H](CC4CC4)[C@H](C)N)c(F)cc3C(N)=O)ccc21` [Example 006-342, 6-(((2R,3S)-3-amino-1-cyclopropylbutan-2-yl)amino)-2-((1-ethyl-1H-indazol-5-yl)amino)-5-fluoronicotinamide]: the pIC50 in the experiment with THP-1 cells [1] was 5.52 to 6.00; in experiment [2] it was more than 8.00; in the experiment with THP-1 cells [3], more than 7.19.
In the same order, the values of `C[C@H](N)[C@H](Nc1nc(Nc2ccc3ncccc3c2)c(C(N)=O)cc1F)C1CC1` [Example 006-368, 6-(((1R,2S)-2-amino-1-cyclopropylpropyl)amino)-5-fluoro-2-((quinolin-6-yl)amino)nicotinamide] are more than 6.00, more than 8.00 and more than 7.19.
On the same counts, the results for `Cc1ncc(Nc2nc(N[C@@H]3CCCC[C@@H]3N)c(F)cc2C(N)=O)cc1-n1nccn1` [Example 006-375, 6-(((1R,2S)-2-aminocyclohexyl)amino)-5-fluoro-2-((6-methyl-5-(2H-1,2,3-triazol-2-yl)pyridin-3-yl)amino)nicotinamide] are 5.52 to 6.00, more than 8.00 and 6.89 to 7.19.
Regarding `Cc1ncc(Nc2nc(N[C@@H]3CCCC[C@@H]3N)c(F)cc2C(N)=O)cc1-n1nccn1` [Example 6-375, 6-(((1R,2S)-2-aminocyclohexyl)amino)-5-fluoro-2-((6-methyl-5-(2H-1,2,3-triazol-2-yl)pyridin-3-yl)amino)nicotinamide], the inhibition in vivo at 10 mg/kg/day with female Lewis rats is not below 85%.
Regarding `Cc1ncc(Nc2nc(N[C@@H]3CCCC[C@@H]3N)c(F)cc2C(N)=O)cc1-c1ccco1` [Example 006-376, 6-(((1R,2S)-2-aminocyclohexyl)amino)-5-fluoro-2-((5-(furan-2-yl)-6-methylpyridin-3-yl)amino)nicotinamide], the pIC50 is 5.52 to 6.00 in the experiment on THP-1 cells [1], more than 8.00 in experiment [2] and more than 7.19 in the experiment on THP-1 cells [3].
With `COc1ncc(Nc2nc(N[C@@H]3CCCC[C@@H]3N)c(F)cc2C(N)=O)cc1-n1nccn1` [Example 006-377, 6-(((1R,2S)-2-aminocyclohexyl)amino)-5-fluoro-2-((6-methoxy-5-(2H-1,2,3-triazol-2-yl)pyridin-3-yl)amino)nicotinamide], the pIC50 in the experiment on THP-1 cells [1] is 5.52 to 6.00; in experiment [2], more than 8.00; in the experiment on THP-1 cells [3], more than 7.19.
On the same counts, the results for `CC(C)C[C@@H](Nc1nc(Nc2ccc3c(cnn3C)c2)c(C(N)=O)cc1F)[C@H](C)N` [Example 006-383, 6-(((2S,3R)-2-amino-5-methylhexan-3-yl)amino)-5-fluoro-2-((1-methyl-1H-indazol-5-yl)amino)nicotinamide] are 5.52 to 6.00, more than 8.00 and more than 7.19.
In the same order, the values of `CCn1ncc2cc(Nc3nc(N[C@H](CC(C)C)[C@H](C)N)c(F)cc3C(N)=O)ccc21` [Example 006-384, 6-(((2S,3R)-2-amino-5-methylhexan-3-yl)amino)-2-((1-ethyl-1H-indazol-5-yl)amino)-5-fluoronicotinamide] are more than 6.00, more than 8.00 and more than 7.19.
In the same order, the values of `NC(=O)c1cc(F)c(N[C@@H]2CCCC[C@@H]2N)nc1Nc1cnc(N2CCOCC2)c(F)c1` [Example 006-395, 6-(((1R,2S)-2-aminocyclohexyl)amino)-5-fluoro-2-((5-fluoro-6-morpholinopyridin-3-yl)amino)nicotinamide] are 5.52 to 6.00, 7.30 to 8.00 and 6.89 to 7.19.
On to `CCOc1nccc(Nc2nc(N[C@@H]3CCCC[C@@H]3N)c(F)cc2C(N)=O)c1F` [Example 006-433, 6-(((1R,2S)-2-aminocyclohexyl)amino)-2-((2-ethoxy-3-fluoropyridin-4-yl)amino)-5-fluoronicotinamide], for which the pIC50 is 5.52 to 6.00 with THP-1 cells [1], more than 8.00 in experiment [2] and 6.89 to 7.19 in the experiment on THP-1 cells [3].
On the same counts, the results for `COC[C@@H](Nc1nc(Nc2ccc3ncccc3c2)c(C(N)=O)cc1F)[C@H](C)N` [Example 006-468, 6-(((2S,3S)-3-amino-1-methoxybutan-2-yl)amino)-5-fluoro-2-((quinolin-6-yl)amino)nicotinamide] are more than 6.00, more than 8.00 and more than 7.19.
On the same counts, the results for `NC(=O)c1cc(F)c(NC2CCCCC2N)nc1Nc1ccc2ncccc2c1` (stereo not shown) [Example 008-006] are more than 6.00, more than 8.00 and more than 7.19.
On the same counts, the results for `NC(=O)c1cc(F)c(N[C@@H](C(N)=O)c2ccccc2)nc1Nc1ccc2ncccc2c1` [Example 012-008] are 5.52 to 6.00, 7.30 to 8.00 and 6.89 to 7.19.
`CCC(N)CNc1nc(Nc2ccc3ncccc3c2)c(C(N)=O)cc1F` (stereo not shown) [Example 014-001]: the pIC50 was 5.52 to 6.00 in the experiment with THP-1 cells [1], more than 8.00 in experiment [2] and more than 7.19 with THP-1 cells [3].
